{"source": "patent US9446039B2", "about": "“Aminoheteroaryl compounds as MTH1 inhibitors” (CEMM—FORSCHUNGSZENTRUM FÜR MOLEKULARE MEDIZIN GMBH, priority 2012, dated 2016)", "type_in_all_cases": "binding", "key": {"[1]": {"molecular_target": "SW480 colon carcinoma cells lysate proteins (Homo sapiens, UniProt P23284)", "sequence (P23284 34-216)": "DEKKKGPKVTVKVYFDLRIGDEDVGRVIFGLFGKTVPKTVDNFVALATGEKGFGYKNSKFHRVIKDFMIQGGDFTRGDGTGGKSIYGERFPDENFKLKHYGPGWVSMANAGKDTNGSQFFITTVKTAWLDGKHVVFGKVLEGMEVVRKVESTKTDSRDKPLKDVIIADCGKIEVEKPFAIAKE", "settings": "PreyGene PPIB"}, "[2]": {"molecular_target": "T1, SW480 colon carcinoma cells lysate proteins (Homo sapiens, UniProt P31949)", "T1 sequence (P31949 1-105)": "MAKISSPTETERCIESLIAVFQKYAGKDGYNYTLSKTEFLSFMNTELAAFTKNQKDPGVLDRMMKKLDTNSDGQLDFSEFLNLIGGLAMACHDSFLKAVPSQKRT", "settings": "PreyGene S100A11"}, "[3]": {"molecular_target": "T2, SW480 colon carcinoma cells lysate proteins (Homo sapiens, UniProt P04075)", "T2 sequence (P04075 1-364)": "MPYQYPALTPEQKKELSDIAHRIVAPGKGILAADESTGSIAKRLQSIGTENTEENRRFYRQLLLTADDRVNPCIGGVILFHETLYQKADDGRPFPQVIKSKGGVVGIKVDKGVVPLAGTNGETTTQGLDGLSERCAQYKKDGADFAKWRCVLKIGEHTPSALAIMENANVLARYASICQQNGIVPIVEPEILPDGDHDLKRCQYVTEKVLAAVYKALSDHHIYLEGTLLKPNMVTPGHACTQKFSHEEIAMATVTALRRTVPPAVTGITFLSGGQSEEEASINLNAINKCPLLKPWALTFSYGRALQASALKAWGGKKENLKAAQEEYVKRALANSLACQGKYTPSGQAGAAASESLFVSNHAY", "settings": "PreyGene ALDOA"}, "[4]": {"molecular_target": "SW480 colon carcinoma cells lysate proteins (Homo sapiens, UniProt P67809)", "sequence (P67809 whole entry)": "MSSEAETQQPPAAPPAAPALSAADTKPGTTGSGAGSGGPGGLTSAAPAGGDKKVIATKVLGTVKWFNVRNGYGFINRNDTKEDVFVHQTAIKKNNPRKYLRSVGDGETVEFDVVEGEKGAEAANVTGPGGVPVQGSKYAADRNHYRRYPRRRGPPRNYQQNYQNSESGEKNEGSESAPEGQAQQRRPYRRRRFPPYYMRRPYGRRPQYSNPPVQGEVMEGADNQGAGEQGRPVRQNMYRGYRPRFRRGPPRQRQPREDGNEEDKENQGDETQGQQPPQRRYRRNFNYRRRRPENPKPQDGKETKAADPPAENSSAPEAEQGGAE", "settings": "PreyGene YBX1; SW480 cells"}, "[5]": {"molecular_target": "SW480 colon carcinoma cells lysate proteins (Homo sapiens, UniProt Q9Y262)", "sequence (Q9Y262 whole entry)": "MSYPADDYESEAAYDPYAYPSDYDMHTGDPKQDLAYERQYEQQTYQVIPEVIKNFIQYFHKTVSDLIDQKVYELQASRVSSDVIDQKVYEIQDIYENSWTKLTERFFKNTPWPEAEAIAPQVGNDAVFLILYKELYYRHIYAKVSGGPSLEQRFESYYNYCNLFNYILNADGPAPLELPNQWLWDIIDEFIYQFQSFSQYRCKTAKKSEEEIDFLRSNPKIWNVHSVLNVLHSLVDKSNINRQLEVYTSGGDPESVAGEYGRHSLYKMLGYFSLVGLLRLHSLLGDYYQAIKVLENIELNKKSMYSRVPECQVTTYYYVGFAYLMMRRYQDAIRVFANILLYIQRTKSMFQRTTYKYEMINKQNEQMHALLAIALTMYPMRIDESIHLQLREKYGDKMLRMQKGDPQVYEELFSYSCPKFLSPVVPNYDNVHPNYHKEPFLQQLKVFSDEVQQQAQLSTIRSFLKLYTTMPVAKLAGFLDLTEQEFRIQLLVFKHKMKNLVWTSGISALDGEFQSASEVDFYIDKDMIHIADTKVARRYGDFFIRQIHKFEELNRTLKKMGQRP", "settings": "PreyGene EIF3L; SW480 cells"}, "[6]": {"molecular_target": "T3, SW480 colon carcinoma cells lysate proteins (Homo sapiens, UniProt P49458)", "T3 sequence (P49458 1-86)": "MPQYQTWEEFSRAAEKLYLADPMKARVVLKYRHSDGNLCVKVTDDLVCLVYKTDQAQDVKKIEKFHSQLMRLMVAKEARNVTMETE", "settings": "PreyGene SRP9"}, "[7]": {"molecular_target": "T4, SW480 colon carcinoma cells lysate proteins (Homo sapiens, UniProt P35527)", "T4 sequence (P35527 1-623)": "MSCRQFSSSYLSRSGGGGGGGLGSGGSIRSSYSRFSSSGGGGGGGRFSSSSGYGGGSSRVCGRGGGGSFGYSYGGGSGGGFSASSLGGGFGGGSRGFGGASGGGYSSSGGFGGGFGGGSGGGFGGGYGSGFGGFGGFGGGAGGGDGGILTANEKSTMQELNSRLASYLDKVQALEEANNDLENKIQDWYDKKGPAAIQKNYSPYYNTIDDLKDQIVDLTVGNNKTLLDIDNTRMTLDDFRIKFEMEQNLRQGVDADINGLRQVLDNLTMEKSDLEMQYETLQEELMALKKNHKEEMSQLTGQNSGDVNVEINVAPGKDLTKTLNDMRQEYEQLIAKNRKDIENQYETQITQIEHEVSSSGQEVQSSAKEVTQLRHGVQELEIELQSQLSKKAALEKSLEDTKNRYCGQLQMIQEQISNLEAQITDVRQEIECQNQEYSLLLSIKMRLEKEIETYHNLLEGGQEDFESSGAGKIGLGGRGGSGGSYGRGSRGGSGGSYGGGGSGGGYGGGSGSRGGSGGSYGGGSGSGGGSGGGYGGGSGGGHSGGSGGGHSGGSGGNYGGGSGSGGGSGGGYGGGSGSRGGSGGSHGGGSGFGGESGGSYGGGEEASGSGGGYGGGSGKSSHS", "settings": "PreyGene KRT9"}, "[8]": {"molecular_target": "SW480 colon carcinoma cells lysate proteins (Homo sapiens, UniProt Q00610)", "sequence (Q00610 whole entry)": "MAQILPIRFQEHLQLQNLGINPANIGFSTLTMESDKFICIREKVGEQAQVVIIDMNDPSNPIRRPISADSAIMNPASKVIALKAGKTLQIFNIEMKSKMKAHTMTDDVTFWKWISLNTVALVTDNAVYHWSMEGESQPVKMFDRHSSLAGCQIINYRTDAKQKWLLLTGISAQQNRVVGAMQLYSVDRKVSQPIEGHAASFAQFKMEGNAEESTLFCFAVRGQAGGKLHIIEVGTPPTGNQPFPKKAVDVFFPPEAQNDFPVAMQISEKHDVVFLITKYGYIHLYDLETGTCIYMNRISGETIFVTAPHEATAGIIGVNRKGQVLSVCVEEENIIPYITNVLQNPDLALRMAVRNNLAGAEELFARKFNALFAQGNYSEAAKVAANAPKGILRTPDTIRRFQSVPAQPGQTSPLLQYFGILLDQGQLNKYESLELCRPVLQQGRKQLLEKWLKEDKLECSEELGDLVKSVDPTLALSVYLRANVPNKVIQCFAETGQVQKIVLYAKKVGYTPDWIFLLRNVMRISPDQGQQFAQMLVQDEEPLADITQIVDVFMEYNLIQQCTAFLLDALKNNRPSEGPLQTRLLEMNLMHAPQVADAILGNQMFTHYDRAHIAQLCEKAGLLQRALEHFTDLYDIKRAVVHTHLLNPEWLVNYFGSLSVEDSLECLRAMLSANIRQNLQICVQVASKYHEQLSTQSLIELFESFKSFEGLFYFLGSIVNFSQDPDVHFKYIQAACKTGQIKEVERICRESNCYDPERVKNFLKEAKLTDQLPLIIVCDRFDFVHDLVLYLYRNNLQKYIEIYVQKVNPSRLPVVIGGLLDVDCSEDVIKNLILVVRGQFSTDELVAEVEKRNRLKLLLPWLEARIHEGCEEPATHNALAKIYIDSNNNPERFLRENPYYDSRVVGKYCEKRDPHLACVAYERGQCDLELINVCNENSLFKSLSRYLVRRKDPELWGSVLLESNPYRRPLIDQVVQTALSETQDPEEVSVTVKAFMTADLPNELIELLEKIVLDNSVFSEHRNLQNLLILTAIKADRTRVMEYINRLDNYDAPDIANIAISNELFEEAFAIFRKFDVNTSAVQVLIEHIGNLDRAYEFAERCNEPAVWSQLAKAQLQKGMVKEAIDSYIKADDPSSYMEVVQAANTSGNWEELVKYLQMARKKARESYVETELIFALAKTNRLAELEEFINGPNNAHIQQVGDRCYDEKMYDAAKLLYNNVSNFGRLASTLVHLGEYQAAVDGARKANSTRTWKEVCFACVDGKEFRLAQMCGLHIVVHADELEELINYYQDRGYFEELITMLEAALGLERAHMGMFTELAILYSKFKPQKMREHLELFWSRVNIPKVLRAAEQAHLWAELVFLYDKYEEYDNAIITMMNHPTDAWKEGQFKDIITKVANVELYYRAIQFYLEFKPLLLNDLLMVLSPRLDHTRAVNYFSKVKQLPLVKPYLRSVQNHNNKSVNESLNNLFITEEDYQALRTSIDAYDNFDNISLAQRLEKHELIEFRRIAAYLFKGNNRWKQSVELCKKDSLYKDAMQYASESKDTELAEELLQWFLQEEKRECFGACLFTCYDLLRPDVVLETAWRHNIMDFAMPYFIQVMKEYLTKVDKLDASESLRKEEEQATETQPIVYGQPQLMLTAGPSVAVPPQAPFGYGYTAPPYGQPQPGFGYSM", "settings": "PreyGene CLTC; SW480 cells"}, "[9]": {"molecular_target": "T5, SW480 colon carcinoma cells lysate proteins (Homo sapiens, UniProt P32119)", "T5 sequence (P32119 1-198)": "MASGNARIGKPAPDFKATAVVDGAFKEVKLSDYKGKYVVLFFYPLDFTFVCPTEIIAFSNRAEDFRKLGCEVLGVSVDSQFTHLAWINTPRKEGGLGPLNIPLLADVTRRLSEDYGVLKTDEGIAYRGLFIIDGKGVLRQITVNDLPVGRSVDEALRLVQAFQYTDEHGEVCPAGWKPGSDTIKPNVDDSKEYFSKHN", "settings": "PreyGene PRDX2"}, "[10]": {"molecular_target": "SW480 colon carcinoma cells lysate proteins (Homo sapiens, UniProt P15531)", "sequence (P15531 whole entry)": "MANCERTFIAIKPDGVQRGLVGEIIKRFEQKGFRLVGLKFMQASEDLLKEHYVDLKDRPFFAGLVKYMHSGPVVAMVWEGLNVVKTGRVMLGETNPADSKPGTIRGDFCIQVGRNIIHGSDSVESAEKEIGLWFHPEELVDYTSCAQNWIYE", "settings": "PreyGene NME1"}}}
{"smiles": "C[C@H](Oc1cc(-c2cnn(C3CCNCC3)c2)cnc1N)c1c(Cl)ccc(F)c1Cl", "note": "[(5)-crizotinib]", "values": [{"measurement": "AvgP", "setting": "[1]", "result": 0.381}, {"measurement": "SC.Exp. 1-1", "setting": "[1]", "result": 2}, {"measurement": "SC.Exp. 1-2", "setting": "[1]", "result": 2}, {"measurement": "SC.Exp. 2-1", "setting": "[1]", "result": 0}, {"measurement": "SC.Exp. 2-2", "setting": "[1]", "result": 0}, {"measurement": "Sum (SC.Exp.)", "setting": "[1]", "result": 4}, {"measurement": "AvgP", "setting": "[2]", "result": 0.3773}, {"measurement": "SC.Exp. 1-1", "setting": "[2]", "result": 4}, {"measurement": "SC.Exp. 1-2", "setting": "[2]", "result": 5}, {"measurement": "SC.Exp. 2-1", "setting": "[2]", "result": 0}, {"measurement": "SC.Exp. 2-2", "setting": "[2]", "result": 0}, {"measurement": "Sum (SC.Exp.)", "setting": "[2]", "result": 9}, {"measurement": "AvgP", "setting": "[3]", "result": 0.2283}, {"measurement": "SC.Exp. 1-1", "setting": "[3]", "result": 12}, {"measurement": "SC.Exp. 1-2", "setting": "[3]", "result": 12}, {"measurement": "SC.Exp. 2-1", "setting": "[3]", "result": 2}, {"measurement": "SC.Exp. 2-2", "setting": "[3]", "result": 0}, {"measurement": "Sum (SC.Exp.)", "setting": "[3]", "result": 26}, {"measurement": "AvgP", "setting": "[4]", "result": 0}, {"measurement": "SC.Exp. 1-1", "setting": "[4]", "result": 2}, {"measurement": "SC.Exp. 1-2", "setting": "[4]", "result": 2}, {"measurement": "SC.Exp. 2-1", "setting": "[4]", "result": 2}, {"measurement": "SC.Exp. 2-2", "setting": "[4]", "result": 2}, {"measurement": "SC.Exp. Sum", "setting": "[4]", "result": 8}, {"measurement": "AvgP", "setting": "[5]", "result": 0}, {"measurement": "SC.Exp. 1-1", "setting": "[5]", "result": 9}, {"measurement": "SC.Exp. 1-2", "setting": "[5]", "result": 7}, {"measurement": "SC.Exp. 2-1", "setting": "[5]", "result": 6}, {"measurement": "SC.Exp. 2-2", "setting": "[5]", "result": 4}, {"measurement": "SC.Exp. Sum", "setting": "[5]", "result": 26}, {"measurement": "AvgP", "setting": "[6]", "result": 0.2561}, {"measurement": "SC.Exp. 1-1", "setting": "[6]", "result": 2}, {"measurement": "SC.Exp. 1-2", "setting": "[6]", "result": 1}, {"measurement": "SC.Exp. 2-1", "setting": "[6]", "result": 0}, {"measurement": "SC.Exp. 2-2", "setting": "[6]", "result": 2}, {"measurement": "Sum (SC.Exp.)", "setting": "[6]", "result": 5}, {"measurement": "AvgP", "setting": "[7]", "result": 0.1979}, {"measurement": "SC.Exp. 1-1", "setting": "[7]", "result": 18}, {"measurement": "SC.Exp. 1-2", "setting": "[7]", "result": 15}, {"measurement": "SC.Exp. 2-1", "setting": "[7]", "result": 4}, {"measurement": "SC.Exp. 2-2", "setting": "[7]", "result": 6}, {"measurement": "Sum (SC.Exp.)", "setting": "[7]", "result": 43}, {"measurement": "AvgP", "setting": "[8]", "result": 0}, {"measurement": "SC.Exp. 1-1", "setting": "[8]", "result": 16}, {"measurement": "SC.Exp. 1-2", "setting": "[8]", "result": 14}, {"measurement": "SC.Exp. 2-1", "setting": "[8]", "result": 5}, {"measurement": "SC.Exp. 2-2", "setting": "[8]", "result": 7}, {"measurement": "SC.Exp. Sum", "setting": "[8]", "result": 42}, {"measurement": "AvgP", "setting": "[9]", "result": 0.3255}, {"measurement": "SC.Exp. 1-1", "setting": "[9]", "result": 4}, {"measurement": "SC.Exp. 1-2", "setting": "[9]", "result": 4}, {"measurement": "SC.Exp. 2-1", "setting": "[9]", "result": 0}, {"measurement": "SC.Exp. 2-2", "setting": "[9]", "result": 0}, {"measurement": "Sum (SC.Exp.)", "setting": "[9]", "result": 8}, {"measurement": "AvgP", "setting": "[10]", "result": 0.4442}, {"measurement": "SC.Exp. 1-1", "setting": "[10]", "result": 6}, {"measurement": "SC.Exp. 1-2", "setting": "[10]", "result": 4}, {"measurement": "SC.Exp. 2-1", "setting": "[10]", "result": 0}, {"measurement": "SC.Exp. 2-2", "setting": "[10]", "result": 0}, {"measurement": "Sum (SC.Exp.)", "setting": "[10]", "result": 10}]}
